Data as given in publication PMC9348805, “Identification of the NRF2 transcriptional network as a therapeutic target for trigeminal neuropathic pain” (Science Advances, 2022).

Biological target: T1, TRPA1 (Homo sapiens, UniProt O75762)
T1 construct: full-length myc-tagged TRPA1 cDNA (gift of M. Caterina), transiently expressed in HEK-293 cells; Fura-2 calcium imaging
Test: calcium imaging (Fura-2) of HEK-293 cells transiently expressing TRPA1, with vector and mutant controls
Assay type: cell-based

T1 sequence (O75762 whole entry): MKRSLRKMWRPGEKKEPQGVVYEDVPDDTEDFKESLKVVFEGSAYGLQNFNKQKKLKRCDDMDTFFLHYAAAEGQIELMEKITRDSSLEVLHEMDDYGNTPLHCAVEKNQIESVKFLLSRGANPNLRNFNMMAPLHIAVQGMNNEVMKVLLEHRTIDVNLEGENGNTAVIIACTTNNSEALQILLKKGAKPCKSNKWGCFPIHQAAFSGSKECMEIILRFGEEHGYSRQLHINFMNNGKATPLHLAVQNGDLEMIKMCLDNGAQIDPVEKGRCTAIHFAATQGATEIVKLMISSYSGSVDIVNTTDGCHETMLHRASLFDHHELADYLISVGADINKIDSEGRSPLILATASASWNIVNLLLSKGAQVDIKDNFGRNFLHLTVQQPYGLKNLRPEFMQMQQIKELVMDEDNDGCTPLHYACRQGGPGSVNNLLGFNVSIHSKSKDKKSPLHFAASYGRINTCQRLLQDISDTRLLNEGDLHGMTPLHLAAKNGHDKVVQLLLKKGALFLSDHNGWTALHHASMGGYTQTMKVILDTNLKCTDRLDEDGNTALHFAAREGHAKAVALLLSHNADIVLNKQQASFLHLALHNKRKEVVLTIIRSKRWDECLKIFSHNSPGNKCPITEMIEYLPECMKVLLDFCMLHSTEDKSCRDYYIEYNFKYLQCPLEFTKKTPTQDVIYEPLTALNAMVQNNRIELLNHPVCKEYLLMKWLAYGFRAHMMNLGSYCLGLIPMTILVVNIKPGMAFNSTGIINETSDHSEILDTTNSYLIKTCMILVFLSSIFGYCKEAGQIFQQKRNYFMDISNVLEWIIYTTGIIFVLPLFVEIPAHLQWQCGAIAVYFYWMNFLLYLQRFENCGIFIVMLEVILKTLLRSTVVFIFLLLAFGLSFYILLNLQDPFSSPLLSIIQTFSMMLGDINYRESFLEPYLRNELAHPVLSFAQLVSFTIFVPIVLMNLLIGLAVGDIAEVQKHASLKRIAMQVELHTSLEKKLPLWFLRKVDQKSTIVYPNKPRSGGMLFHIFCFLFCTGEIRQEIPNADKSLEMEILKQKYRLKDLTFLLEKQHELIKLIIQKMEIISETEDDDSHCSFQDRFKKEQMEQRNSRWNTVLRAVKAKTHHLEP

SMILES: CCCCCC(O)C=CC=O (stereo not shown) [4-HNE]
- EC50: 48 µM
